Patent publication US9737596B2, “Vaccine for the prevention of breast cancer recurrence” (The Henry M. Jackson Foundation for the Advancement of …, priority 2008, dated 2017)

Legend:
[1] = system: disease-free, high risk breast cancer patients; test: Phase II trial: DTH reaction to GP2; format: in vivo, human
Method: (§1) Disease-free, high risk breast cancer patients who have completed standard adjuvant therapy were enrolled at multiple sites and randomized to receive six monthly inoculations of either 500 mcg of GP2 with 125 mcg of GM-CSF (Peptide group; PG) or 125 mcg of GM-CSF alone (adjuvant group; AG). Toxicity was assessed after each inoculation. Immunologic response was monitored by measured delayed type hypersensitivity reactions (DTH) and an HLA-A2:Immunoglobulin dimer assay to detect GP2-specific CD8^+ T-lymphocytes. Patients were monitored clinically, radiographically, and pathologically for recurrence.

[2] = system: disease-free, high risk breast cancer patients; test: Phase II trial: breast cancer recurrence; format: in vivo, human; conditions: median follow up of 17.9 months, preliminary data
Method: as §1

[3] = system: disease-free, high risk breast cancer patients; test: Phase II trial: toxicity; format: in vivo, human; conditions: six monthly inoculations
Method: as §1

[4] = system: GP2-specific CD8+ T-lymphocytes; test: Phase II trial: HLA-A2:Immunoglobulin dimer assay, GP2-specific CD8+ T-lymphocytes; format: in vivo, human
Method: as §1

[5] = system: HLA-A2 molecule; conditions: cited from earlier work

Substance | patients with significant immunity (SI) by DTH (reaction larger than 1 cm) ([1]; post-vaccination) | Median DTH reaction to GP2 ([1]; post-vaccination (after completion of primary series)) | Median DTH reaction to GP2 ([1]; pre-vaccination) | recurrence rate [2] | grade 3-5 systemic toxicities [3] | grade 4-5 local toxicities [3] | % GP2-specific CD8+ lymphocytes ([4]; 6 months after completion of the primary series) | % GP2-specific CD8+ lymphocytes ([4]; baseline) | binding affinity for the HLA-A2 molecule [5]
GM-CSF: granulocyte macrophage-colony stimulating factor, 125 mcg alone, control adjuvant group of phase II trial | 45.5% | 0.5±3.3 cm | 0.0±1.0 cm | 13% | no grade 3-5 systemic toxicities | no grade 4-5 local toxicities | 1.41±0.49% | 1.08±0.16% | 
IISAVVGIL (listed as Homo sapiens) [GP2, nine amino acid peptide from the transmembrane portion of HER2/neu, amino acids 654-662] |  |  |  |  |  |  |  |  | relatively poor binding affinity
